Data on eight compounds can be found in patent US11718611B2, “Benzenesulfonylbenazamide compound for inhibiting BCL-2 protein and composition and use thereof” (Shenzhen TargetRx, Inc., priority 2017, dated 2023).

Structures are written as SMILES.

Data set [1] in a line: Liver microsomal metabolism experiment (metabolic stability). To be noted: pH 7.4; mouse liver microsomes 0.5 mg/mL, compound 1 μM. The format is in vitro ADME. The protocol: Microsome assay: mouse liver microsomes: 0.5 mg/mL, Xenotech; coenzyme (NADPH/NADH): 1 mM, Sigma Life Science; magnesium chloride: 5 mM, 100 mM phosphate buffer (pH 7.4).
Preparation of stock solutions: Powder of the compounds were accurately weighed and dissolved in DMSO to 5 mM.
Preparation of phosphate buffer (100 mM, pH7.4): A pre-prepared 0.5M potassium dihydrogen phosphate (150 mL) was mixed with 0.5M dibasic potassium phosphate (700 mL). The pH of the mixture was adjusted to 7.4 with 0.5M dibasic potassium phosphate solution. The mixture was diluted 5-fold with ultrapure water before use, and magnesium chloride was added to obtain a phosphate buffer (100 mM) containing 100 mM potassium phosphate, 3.3 mM magnesium chloride, pH 7.4.
A NADPH regeneration system solution (containing 6.5 mM NADP, 16.5 mM G-6-P, 3 U/mL G-6-P D, 3.3 mM magnesium chloride) was prepared and placed on wet ice prior to use.
Preparation of stop solution: an acetonitrile solution containing 50 ng/mL propranolol hydrochloride and 200 ng/mL tolbutamide (internal standard). 25057.5 μL of phosphate buffer (pH 7.4) was taken into a 50 mL centrifuge tube, to which 812.5 μL mouse liver microsomes were added, and mixed to obtain a liver microsome dilution with a protein concentration of 0.625 mg/mL.
Incubation of the samples: The stock solutions of the respective compounds were respectively diluted to 0.25 mM with an aqueous solution containing 70% acetonitrile, and used as a working solution, ready for use. 398 μL of the dilution of human liver microsomes or rat mouse liver microsomes were added to 96-well incubation plates (N=2), respectively, and 2 μL of 0.25 mM working solution was added and mixed.
Metabolic stability assay: 300 μL of pre-chilled stop solution was added to each well of 96-well deep well plates and placed on ice as stop plates. The 96-well incubation plates and NADPH regeneration system were placed in a 37° C. water bath box, shaken at 100 rpm and pre-incubated for 5 min. 80 μL of incubation solution was taken out from each well of the incubation plates and added to the stop plates, mixed, and replenished with 20 μL of NADPH regeneration system solution as a 0-min sample. 80 μL of NADPH regeneration system solution was added to each well of the incubation plates to start the reaction and start counting. […] Separately, 100 μL of the reaction solutions was taken at 10, 30, and 90 min reaction, respectively, added to stop plates, and vortexed for 3 minutes to terminate the reaction. The stop plates were centrifuged at 5000×g at 4° C. for 10 min. 100 μL of the supernatant was added to a 96-well plate to which 100 μL of distilled water was previously added, mixed, and analyzed by LC-MS/MS.
Data analysis: The peak areas of the corresponding compounds and internal standard were detected by LC-MS/MS system, and the ratio of the peak area of the compounds to the internal standard was calculated.

Data set [2] can be described thus: Pharmacokinetic experiment in rats. It is filed as in vivo, SD rat. The settings on record: male SD rats, i.g., 3 mg/kg; for AUC(0-t) / Cmax / MRT / Tmax: rat, plasma, po. How it is done: Experimental Objective: To investigate the pharmacokinetic behavior of the compounds of the present disclosure after the rats being administered with the test compounds.
Species and strain: SD rat grade: SPF grade
Gender and quantity: male, 6
Experimental procedures: Before blood samples were collected, 20 μL of 2 M sodium fluoride solution (esterase inhibitor) was previously added to an EDTA-K2 anticoagulant tube, dried in an 80° C. oven, and placed in a 4° C. refrigerator.
Rats (male, weighing 187 to 197 g) were randomly divided into 2 groups, and were fasted overnight in the afternoon before the experiment but were allowed to drink water freely. Food was given 4 hours after the administration. Group A was given Venetoclaxr (3 mg/kg), and group B was given example compounds 1 to 7 (3 mg/kg). About 100-200 μL of blood was taken from the orbital vein of rats at 15 min, 30 min, 1, 2, 3, 5, 8 and 10 h after administration, placed in a 0.5 mL Eppendorf tube with EDTA-K2 anticoagulant and mixed immediately. After anticoagulation, the tube was gently inverted 5-6 times as quickly as possible. After the blood was taken, it was placed in an ice box, and then within 30 min, the blood sample was centrifuged for 10 min at 4000 rpm and 4° C. to separate the plasma. Immediately after collection of all plasma, it was stored at −20° C. The concentration of the drug in plasma at each time point was determined after sample collection at all time points.

In data set [1], `[2H]C([2H])(C1=C(c2ccc(Cl)cc2)CC(C)(C)CC1)N1CCN(c2ccc(C(=O)NS(=O)(=O)c3ccc(NCC4CCOCC4)c([N+](=O)[O-])c3)c(Oc3cnc4[nH]ccc4c3)c2)CC1` (single isomer, unassigned) [Compound T-1, 4-(4-{[2-(4-chlorophenyl)-4,4-dimethylcyclohex-1-en-1-yl]methyl-d2}piperazin-1-yl)-N-({3-nitro-4-[(tetrahydro-2H-pyran-4-ylmethyl)amino]phenyl}sulfonyl)-2-(1H-pyrrolo[2,3-b]pyridin-5-yloxy)benzamide] had a half-life at 1 μM of 4.07 h and a microsomal CLint at 1 μM of 5.7 µL/min/mg.
In data set [1], `[2H]C([2H])(Nc1ccc(S(=O)(=O)NC(=O)c2ccc(N3CCN(C([2H])([2H])C4=C(c5ccc(Cl)cc5)CC(C)(C)CC4)CC3)cc2Oc2cnc3[nH]ccc3c2)cc1[N+](=O)[O-])C1CCOCC1` (single isomer, unassigned) [Compound T-2, 4-(4-{[2-(4-chlorophenyl)-4,4-dimethylcyclohex-1-en-1-yl]methyl-d2}piperazin-1-yl)-N-({3-nitro-4-[(tetrahydro-2H-pyran-4-ylmethyl-d2)amino]phenyl}sulfonyl)-2-(1H-pyrrolo[2,3-b]pyridin-5-yloxy)benzamide] displayed a half-life at 1 μM of 2.38 h and a microsomal CLint at 1 μM of 9.7 µL/min/mg.
As for `[2H]C([2H])(Nc1ccc(S(=O)(=O)NC(=O)c2ccc(N3CCN(CC4=C(c5ccc(Cl)cc5)CC(C)(C)CC4)CC3)cc2Oc2cnc3[nH]ccc3c2)cc1[N+](=O)[O-])C1CCOCC1` (single isomer, unassigned) [Compound T-3, 4-(4-{[2-(4-chlorophenyl)-4,4-dimethylcyclohex-1-en-1-yl]methyl}piperazin-1-yl)-N-({3-nitro-4-[(tetrahydro-2H-pyran-4-ylmethyl-d2)amino]phenyl}sulfonyl)-2-(1H-pyrrolo[2,3-b]pyridin-5-yloxy)benzamide], in data set [2], the “Cl—pred” value is recorded as 2.41 L/h/kg, the F stood at 7.10%, the area under the curve AUC(0-t) amounted to 4.43 µg·h/mL and the Cmax stood at 0.68 µg/mL. Also, in data set [2], the MRT was 5.07 h and the Tmax is 3.33 h. Further, in data set [1], the half-life at 1 μM is 1.25 h and the microsomal CLint at 1 μM was found to be 18.4 µL/min/mg.
Regarding `[2H]C([2H])(C1=C(c2ccc(Cl)cc2)CC(C)(C)CC1)N1C([2H])([2H])C([2H])([2H])N(c2ccc(C(=O)NS(=O)(=O)c3ccc(NCC4CCOCC4)c([N+](=O)[O-])c3)c(Oc3cnc4[nH]ccc4c3)c2)C([2H])([2H])C1([2H])[2H]` (single isomer, unassigned) [Compound T-4, 4-(4-{[2-(4-chlorophenyl)-4,4-dimethylcyclohex-1-en-1-yl]-methyl-d2}piperazin-1-yl-2,2,3,3,5,5,6,6-d8)-N-({3-nitro-4-[(tetrahydro-2H-pyran-4-ylmethyl)amino]phenyl}sulfonyl)-2-(1H-pyrrolo[2,3-b]pyridin-5-yloxy)benzamide], in data set [1], the half-life at 1 μM was 1.12 h and the microsomal CLint at 1 μM was found to be 20.7 µL/min/mg.
In data set [1], `[2H]C1([2H])N(CC2=C(c3ccc(Cl)cc3)CC(C)(C)CC2)C([2H])([2H])C([2H])([2H])N(c2ccc(C(=O)NS(=O)(=O)c3ccc(NCC4CCOCC4)c([N+](=O)[O-])c3)c(Oc3cnc4[nH]ccc4c3)c2)C1([2H])[2H]` (single isomer, unassigned) [Compound T-5, 4-(4-{[2-(4-chlorophenyl)-4,4-dimethylcyclohex-1-en-1-yl]methyl}piperazin-1-yl-2,2,3,3,5,5,6,6-d8)-N-({3-nitro-4-[(tetrahydro-2H-pyran-4-ylmethyl)amino]phenyl}sulfonyl)-2-(1H-pyrrolo[2,3-b]pyridin-5-yloxy)benzamide] gave a half-life at 1 μM of 1.52 h and a microsomal CLint at 1 μM of 15.2 µL/min/mg.
In data set [1], `[2H]C([2H])(Nc1ccc(S(=O)(=O)NC(=O)c2ccc(N3C([2H])([2H])C([2H])([2H])N(CC4=C(c5ccc(Cl)cc5)CC(C)(C)CC4)C([2H])([2H])C3([2H])[2H])cc2Oc2cnc3[nH]ccc3c2)cc1[N+](=O)[O-])C1CCOCC1` (single isomer, unassigned) [Compound T-6, 4-(4-{[2-(4-chlorophenyl)-4,4-dimethylcyclohex-1-en-1-yl]methyl}piperazin-1-yl-2,2,3,3,5,5,6,6-d8)-N-({3-nitro-4-[(tetrahydro-2H-pyran-4-ylmethyl-d2)amino]phenyl}sulfonyl)-2-(1H-pyrrolo[2,3-b]pyridin-5-yloxy)benzamide] gave a half-life at 1 μM of 1.3 h and a microsomal CLint at 1 μM of 17.8 µL/min/mg.
In data set [1], `[2H]C([2H])(Nc1ccc(S(=O)(=O)NC(=O)c2ccc(N3C([2H])([2H])C([2H])([2H])N(C([2H])([2H])C4=C(c5ccc(Cl)cc5)CC(C)(C)CC4)C([2H])([2H])C3([2H])[2H])cc2Oc2cnc3[nH]ccc3c2)cc1[N+](=O)[O-])C1CCOCC1` (single isomer, unassigned) [Compound T-7, 4-(4-{[2-(4-chlorophenyl)-4,4-dimethylcyclohex-1-en-1-yl]methyl-d2}piperazin-1-yl-2,2,3,3,5,5,6,6-d8)-N-({3-nitro-4-[(tetrahydro-2H-pyran-4-ylmethyl-d2)amino]phenyl}sulfonyl)-2-(1H-pyrrolo[2,3-b]pyridin-5-yloxy)benzamide] had a half-life at 1 μM of 5.11 h and a microsomal CLint at 1 μM of 4.5 µL/min/mg.
With `CC1(C)CCC(CN2CCN(c3ccc(C(=O)NS(=O)(=O)c4ccc(NCC5CCOCC5)c([N+](=O)[O-])c4)c(Oc4cnc5[nH]ccc5c4)c3)CC2)=C(c2ccc(Cl)cc2)C1` [Venetoclax, 4-(4-{[2-(4-chlorophenyl)-4,4-dimethylcyclohex-1-en-1-yl]methyl}piperazin-1-yl)-N-({3-nitro-4-[(tetrahydro-2H-pyran-4-ylmethyl)amino]phenyl}sulfonyl)-2-(1H-pyrrolo[2,3-b]pyridin-5-yloxy)benzamide, reference compound], in data set [2], the “Cl—pred” value is recorded as 3.28 L/h/kg, the F worked out at 3.47%, the AUC(0-t) came to 3.06 µg·h/mL and the Cmax stood at 0.478 µg/mL. Moreover, in data set [2], the MRT was determined as 5.22 h and the Tmax came out at 3.33 h. In addition, in data set [1], the half-life at 1 μM stood at 1.35 h and the microsomal CLint at 1 μM stood at 17.1 µL/min/mg.
